Experimental data taken from patent publication US20200368312A1 (priority 2017, published 2020).
Where two headings read alike, the source gives them in different places.

Legend:
[1] = test system: Staphylococcus aureus; assay: microbe, parasite or virus in culture; format: cell-based
[2] = test system: Enterococci; format: cell-based
[3] = test system: Streptococci; assay: Broth microdilution MIC, Streptococci (Example 11, Table 7); format: cell-based
[4] = test system: Clostridium difficile; assay: Broth microdilution MIC, C. difficile, anaerobic, supplemented Brucella Broth (Example 11, Table 7); format: cell-based
[5] = Un-inoculated solubility control plates, drug precipitation in test media; format: physicochemical; settings: top concentration tested (64 μg/mL) in MHBII with blood and supplemented Brucella broth
[6] = test system: S. epidermidis (CoNS); assay: Broth microdilution MIC, S. epidermidis (CoNS) (Table 7); format: cell-based
[7] = test system: S. lugdenensis (CoNS); assay: Broth microdilution MIC, S. lugdenensis (CoNS) (Table 7); format: cell-based; settings: S. lugdenensis (CoNS) MMX 8724
[8] = test system: S. haemolyticus (CoNS); assay: Broth microdilution MIC, S. haemolyticus (CoNS) (Table 7); format: cell-based; settings: S. haemolyticus (CoNS) MMX 529 ATCC 29970
[9] = test system: S. hominis (CoNS); assay: Broth microdilution MIC, S. hominis (CoNS) (Table 7); format: cell-based; settings: S. hominis (CoNS) MMX 667 ATCC 27844
[10] = test system: C. perfringens; format: cell-based; settings: C. perfringens MMX 8351 ATCC 13124
[11] = test system: P. micros; assay: Broth microdilution MIC, P. micros (Table 7); format: cell-based; settings: P. micros MMX 3546
[12] = test system: P. anaerobius; assay: Broth microdilution MIC, P. anaerobius (Table 7); format: cell-based; settings: P. anaerobius MMX 1208 ATCC 27337
[13] = test system: P. acnes; assay: Broth microdilution MIC, P. acnes (Table 7); format: cell-based
[14] = test system: E. lenta; assay: Broth microdilution MIC, E. lenta (Table 7); format: cell-based; settings: E. lenta MMX 1287 ATCC 43055

CCCCCCCCCCNC1(C)CC(OC2C(Oc3c4cc5cc3Oc3ccc(cc3Cl)C(O)C3NC(=O)C(NC(=O)C5NC(=O)C(CC(N)=O)NC(=O)C(NC(=O)C(CC(C)C)NC)C(O)c5ccc(c(Cl)c5)O4)c4ccc(O)c(c4)-c4c(O)cc(O)cc4C(C(=O)O)NC3=O)OC(CO)C(O)C2O)OC(C)C1O (stereo not shown) [Compound 5, N-decyl vancomycin]
0.03 µg/mL: MIC ([3]; S. agalactiae MMX 427 ATCC 13813) | MIC ([3]; S. anginosus (AGS) MMX 1201 ATCC 33397) | MIC ([3]; S. constellatus (AGS) MMX 5677) | MIC ([3]; S. dysgalactiae MMX 5123) | MIC ([3]; S. mitis (MGS) MMX 1205 ATCC 49456) | MIC ([3]; S. oralis (MGS) MMX 5821) | MIC [7] | MIC [12]
0.015 µg/mL: MIC ([3]; S. agalactiae MMX 4088) | MIC ([3]; S. agalactiae MMX 4115, erm^R) | MIC ([3]; S. dysgalactiae MMX 5121) | MIC ([3]; S. dysgalactiae MMX 5124) | MIC ([3]; S. mitis (MGS) MMX 5798) | MIC ([3]; S. pneumoniae MMX 1195 ATCC 49619, PISP) | MIC ([3]; S. pyogenes MMX 946, ermR)
2 µg/mL: MIC ([2]; E. faecium MMX 851, VanA VRE)
9 ×: RV40 activity as compared to Comparator ([1]; MRSA strains (Table 5), […])
0.12 µg/mL: MIC ([1]; S. aureus MMX 2011 ATCC BAA-1756, MRSA) | MIC ([1]; S. aureus MMX 4660, VISA) | MIC ([1]; S. aureus MMX 7900, MRSA) | MIC ([1]; S. aureus MMX 7908, MSSA) | MIC ([2]; E. faecium MMX 173, VanB VRE) | MIC ([6]; S. epidermidis (CoNS) MMX 762, MRSE) | MIC [11] | MIC [14]
0.25 µg/mL: MIC ([1]; S. aureus MMX 2124, VISA, DaptoNS) | MIC ([1]; S. aureus MMX 7902, MRSA)
Some precipitation: drug precipitation [5]
0.5 µg/mL: MIC ([1]; S. aureus MMX 1723, Mu50, VISA) | MIC ([1]; S. aureus MMX 4658, VISA) | MIC ([1]; S. aureus MMX 4665, hVISA) | MIC ([4]; C. difficile MMX 5668 ATCC BAA-1870, NAP1/027)
0.06 µg/mL: MIC ([1]; S. aureus MMX 100 ATCC 29213, MSSA (quality control)) | MIC ([1]; S. aureus MMX 2010, MRSA) | MIC ([1]; S. aureus MMX 2490, MSSA) | MIC ([1]; S. aureus MMX 3982, MRSA) | MIC ([1]; S. aureus MMX 4675 ATCC BAA-1556, MRSA) | MIC ([1]; S. aureus MMX 5717 ATCC 33591, MRSA) | MIC ([1]; S. aureus MMX 5985, MRSA) | MIC ([1]; S. aureus MMX 5989, Mu3, hVISA) | MIC ([1]; S. aureus MMX 5999, MRSA) | MIC ([1]; S. aureus MMX 7899, MRSA) | MIC ([1]; S. aureus MMX 7901, MRSA) | MIC ([1]; S. aureus MMX 7903, MRSA) | MIC ([1]; S. aureus MMX 7907, MSSA) | MIC [2] | MIC ([2]; E. faecalis MMX 1086, VanA VRE) | MIC ([4]; C. difficile MMX 4381 ATCC 700057, toxinAB-negative) | MIC ([4]; C. difficile MMX 4994 ATCC BAA-1805, ribotype 027) | MIC ([6]; S. epidermidis (CoNS) MMX 5145, MRSE) | MIC [8] | MIC [9] | MIC [10] | MIC ([13]; P. acnes MMX 7942 ATCC 6919) | MIC ([13]; P. acnes MMX 7946 ATCC 11827)
